# What was measured:
# Format in all cases: cell-based
# [1] = system: Escherichia coli (ATCC 10536); test: Broth assay for bio-enhancement of antibiotics: viable cell count, Escherichia coli
# [2] = system: Mycobacterium smegmatis; test: Disc diffusion assay against Mycobacterium smegmatis
# Method: (§1) • a) The minimum inhibitory concentration (MIC) of any antibiotic or drug molecule is determined against Escherichia coli (ATCC 10536), Bacillus subtilis (ATCC 6015) and Mycobacterium smegmatis (ATCC 14468) and Candida albicans (ATCC 10231) in broth and disc diffusion assays. • b) The antibiotics or antifungal agents at concentrations 1/10, ⅛, ⅙, ¼, ⅓, ½ and equal to MIC are added alone and in combination with the test compound at varying concentrations in broth assays to evaluate the comparative level of inhibition and similarly at varying concentrations in disc diffusion assay. • c) The combinations showing enhancement in terms of higher activity than antibiotic alone for the inhibition of bacterial growth (large inhibition zone in disc diffusion and higher killing at lower concentration in broth assay) are picked up for future testing. • d) In broth assays the activity is quantified by counting number of viable cells in a given treatment and converted in fold enhancement by the combination treatment compared to antibiotic/drug alone in the killing percentage of cells. • e) The pretreatment assay is followed to determine whether the bioenhancer which may be either an extract obtained from the plant Glycyrrhiza glabra, glycyrrhizin or glycyrrhizic acid, is required along with antibiotic to enhance its activity or even its withdrawal after treatment or prior to antibiotic treatment would benefit. […] Assay for Bio-Enhancement of Anti-Cancer Agents • a) MCF-7 (Breast cancer cell line is inoculated at a density of about 0.1×10^6 cells in MEM medium in the wells of 24 well plate. • b) The used up medium in these cultures is replaced with fresh medium after 18 hours in each well. • c) The test compound (s) is added at desired concentrations in different wells just after the medium replacement. • d) Observations are recorded on the cell count after 36 hours for which the following steps are required. • i. […] The number of viable cells is counted in 5 big squares and the reading is taken from 5 microscopic fields to determine the average. • viii. […]
# [3] = system: Mycobacterium smegmatis (ATCC 14468); test: Broth assay for bio-enhancement of antibiotics: viable cell count, Mycobacterium smegmatis; conditions: Table 3
# Method: (§2) For this, the cells are treated with the bioenhancer/compound for 4 to 8 hours and then washed free of it by centrifugation and washing in sterile water. […] 2. Assay for Bio-Enhancement of Anti-Cancer Agents • a) MCF-7 (Breast cancer cell line is inoculated at a density of about 0.1×10^6 cells in MEM medium in the wells of 24 well plate. • b) The used up medium in these cultures is replaced with fresh medium after 18 hours in each well. • c) The test compound (s) is added at desired concentrations in different wells just after the medium replacement. • d) Observations are recorded on the cell count after 36 hours for which the following steps are required. • i. The medium is removed from the wells. • ii. The wells are rinsed with 1 ml PBS (Phosphate buffer saline). • iii. To each well 500 μl of freshly prepared trypsin solution (0.1% in PBS) is added. • iv. Trypsin solution is removed after 30 seconds and the plate is gently tapped till the cells are released from the plate surface. • v. Fresh 1 ml of MEM growth medium is added and agitated with a pipette to obtain a cell suspension. • vi. 10 μl of cell suspension is taken on the haemocytometer and a cover glass is placed over the counting chamber. • vii. The number of viable cells is counted in 5 big squares and the reading is taken from 5 microscopic fields to determine the average. • viii. The cell count (titre per ml) in the original sample is then calculated as average count×10^3. Composition of Minimum Essential Medium (MEM): 100 ml
# In the next step of elucidation of the enhancer action the applicants experimented with the killing activities of different antibiotics against the bacteria singly and in combination with the test compound glycyrrhizin following the method described above. These experiments are to be considered with assay for bioenhancement of the compounds glycyrrhizin/glycyrrhizic acid and licorice, as described earlier. […] In all the experiments the glycyrrhizin concentration was kept at 1 μg/ml, unless it is specifically mentioned.
# [4] = system: Escherichia coli; test: Disc diffusion assay against Escherichia coli
# Method: as §1
# [5] = system: MCF-7 (Breast cancer cell line); test: Assay for bio-enhancement of anti-cancer agents: viable cell count after 36 hours; conditions: glycyrrhizin alone, without taxol; untreated control […] 10^−6
# Method: as §2
# [6] = system: Escherichia coli, Bacillus subtilis and Mycobacterium smegmatis; test: Bacteria grown with glycyrrhizin alone; pretreatment assay
# Method: For this, the cells are treated with the bioenhancer/compound for 4 to 8 hours and then washed free of it by centrifugation and washing in sterile water. […] The medium is removed from the wells. • ii. The wells are rinsed with 1 ml PBS (Phosphate buffer saline). • iii. To each well 500 μl of freshly prepared trypsin solution (0.1% in PBS) is added. • iv. Trypsin solution is removed after 30 seconds and the plate is gently tapped till the cells are released from the plate surface. • v. Fresh 1 ml of MEM growth medium is added and agitated with a pipette to obtain a cell suspension. • vi. 10 μl of cell suspension is taken on the haemocytometer and a cover glass is placed over the counting chamber. • vii. […] The cell count (titre per ml) in the original sample is then calculated as average count×10^3. Composition of Minimum Essential Medium (MEM): 100 ml In the next step of elucidation of the enhancer action the applicants experimented with the killing activities of different antibiotics against the bacteria singly and in combination with the test compound glycyrrhizin following the method described above. These experiments are to be considered with assay for bioenhancement of the compounds glycyrrhizin/glycyrrhizic acid and licorice, as described earlier. […]
# [7] = system: Candida albicans (ATCC 10231); test: Disc diffusion assay, antifungal agent against Candida albicans; conditions: Candida albicans, ATCC10231; glycyrrhizin 1 μg/disc alone, clotrimazole 0
# Method: as §1
smiles,measurement,setting,value
CO[C@H]1/C=C/O[C@@]2(C)Oc3c(C)c(O)c4c(O)c(c(/C=N/N5CCN(C)CC5)c(O)c4c3C2=O)NC(=O)/C(C)=C\C=C\[C@H](C)[C@H](O)[C@@H](C)[C@@H](O)[C@@H](C)[C@H](OC(C)=O)[C@@H]1C [Rifampicin],Survival fraction of viable cells upon treatment with antibiotic alone (a),"[1]; Table 1, antibiotic 10 μg/ml",0.42
same,Survival fraction of viable cells upon treatment with antibiotic- glycyrrhizin combination (b),"[1]; Table 1, antibiotic 10 μg/ml + glycyrrhizin 1 μg/ml",0.11
same,*Folds enhancement in antibiotic activity (a/b),"[1]; Table 1, antibiotic 10 μg/ml, glycyrrhizin 1 μg/ml",3.8 folds
same,Survival fraction of viable cells upon treatment with antibiotic alone (a),"[1]; Table 1, antibiotic 20 μg/ml",0.28
same,Survival fraction of viable cells upon treatment with antibiotic- glycyrrhizin combination (b),"[1]; Table 1, antibiotic 20 μg/ml + glycyrrhizin 1 μg/ml",0.02
same,*Folds enhancement in antibiotic activity (a/b),"[1]; Table 1, antibiotic 20 μg/ml, glycyrrhizin 1 μg/ml",14.0 folds
same,Survival fraction of viable cells upon treatment with antibiotic glycyrrhizic acid combination (b),"[1]; Table 7, antibiotic 20 μg/ml + glycyrrhizic acid",0.281
same,Survival fraction of viable cells upon treatment with antibiotic glycyrrhizic acid combination (b),"[1]; Table 7, antibiotic 20 μg/ml + glycyrrhizic acid, listed as rifampicin",about 0.281
same,*Folds enhancement in antibiotic activity (a/b),"[1]; Table 7, antibiotic 20 μg/ml, glycyrrhizic acid",2.03 folds
same,Survival fraction of viable cells upon treatment with antibiotic alone (a),"[1]; Table 10, antibiotic 10 μg/ml",0.420
same,Survival fraction of viable cells upon treatment with antibiotic glycyrrhizic acid combination (b),"[1]; Table 10, antibiotic 10 μg/ml + licorice 25 μg/ml",0.135
same,*Folds enhancement in antibiotic activity (a/b),"[1]; Table 10, antibiotic 10 μg/ml, licorice 25 μg/ml",3.10 folds
same,zone of inhibition at 0.4 µg/disc,"[2]; Mycolicibacterium smegmatis, read-out: Net zone of inhibition",3 mm
same,Net zone of inhibition,[2]; rifampicin 0.4 μg/disc + glycyrrhizic acid 4 μg/disc,4 mm
same,Survival fraction of viable cells upon treatment with antibiotic alone (a),[3]; antibiotic 0.5 μg/ml,0.56 × 10^−4
same,Survival fraction of viable cells upon treatment with antibiotic- glycyrrhizin combination (b),[3]; antibiotic 0.5 μg/ml + glycyrrhizin 1 μg/ml,0.086 × 10^−4
same,*Folds enhancement in antibiotic activity (a/b),"[3]; antibiotic 0.5 μg/ml, glycyrrhizin 1 μg/ml",6.5 folds
same,zone of inhibition at 500 µg/disc,"[4]; Escherichia coli, read-out: Net zone of inhibition",2 mm
same,Net zone of inhibition,[4]; rifampicin 500 μg/disc + glycyrrhizic acid 4 μg/disc,3 mm
CC1(C)[C@@H](O[C@H]2O[C@H](C(=O)O)[C@@H](O)[C@H](O)[C@H]2O[C@@H]2O[C@H](C(=O)O)[C@@H](O)[C@H](O)[C@H]2O)CC[C@]2(C)[C@H]3C(=O)C=C4[C@@H]5C[C@@](C)(C(=O)O)CC[C@]5(C)CC[C@@]4(C)[C@]3(C)CC[C@@H]12 [Glycyrrhizin],"Final titre of viable cells, without taxol, control (glycyrrhizin)",[5],0.12 × 10^−6 per ml
same,Enhancement of antibiotic potency after pretreatment of bacterial cells,"[6]; cells pretreated with glycyrrhizin for 4–8 hours, washed free, then treated with antibiotics",the same results were observed
same,Killing of bacteria grown in presence of the compound as such,"[6]; glycyrrhizin alone, no antibiotic",no significant killing
same,zone of inhibition at 1 µg/disc,[7],0 mm

# Reference: patent publication US6979471B1, “Composition comprising pharmaceutical/nutraceutical agent and a bio-enhancer obtained from Glycyrrhiza glabra” (Council of Scientific and Industrial Research, priority 2000, dated 2005)
